# Assay results as given in ChEMBL document CHEMBL1126682, “Quinolone antimicrobial agents substituted with morpholines at the 7-position. Syntheses and structure-activity relationships” (J Med Chem, 1993).
# Key:
# [1] = test system: Staphylococcus aureus; experiment: Minimum inhibition concentration against Staphylococcus aureus FDA209P strain; type: functional
# [2] = test system: Escherichia coli; experiment: Minimum inhibition concentration against Escherichia coli NIHJ JC-2 strain; type: functional
# [3] = test system: Enterococcus faecalis; experiment: Minimum inhibition concentration against Enterococcus faecalis LS-101 strain; type: functional
# [4] = test system: Streptococcus pneumoniae; experiment: Minimum inhibition concentration against Streptococcus pneumoniae Type I strain; type: functional
# [5] = test system: Pseudomonas aeruginosa; experiment: Minimum inhibition concentration against Pseudomonas aeruginosa U-31 strain; type: functional
# [6] = target: T1, GABA-A receptor; anion channel (Homo sapiens) (UniProt P14867+P47870+P18507+P28472+P48169+Q99928+Q9UN88+P34903+O00591+O14764+Q8N1C3+P18505+P78334+P47869+P31644+Q16445); experiment: Percentage of GABA-induced chloride currents with 10e-4 M 4-biphenylacetic acid; type: functional; conditions: Bull Frog
# [7] = test system: Staphylococcus aureus; experiment: Effective dose against Staphylococcus aureus smith strain in mouse; type: functional
# [8] = test system: Staphylococcus aureus; experiment: Minimum inhibitory concentration against Staphylococcus aureus Smith; type: functional
# [9] = test system: Mus musculus; experiment: Percentage of mice with convulsion with compound alone at 400 mg/kg; type: functional
# [10] = target: T1, GABA-A receptor; anion channel (Homo sapiens); experiment: Percentage of GABA-induced chloride currents with compound alone at 10 e-4 M; type: functional; conditions: Bull Frog
# [11] = test system: Escherichia coli; experiment: Minimum inhibitory concentration against Escherichia coli KC14 strain; type: functional
# [12] = target: GABA-A receptor; anion channel; experiment: Inhibition of [3H]muscimol binding to GABA A receptor with compound alone at 10 e-4 M; type: protein-complex assay
# [13] = test system: Escherichia coli; experiment: Effective dose against Escherichia coli KC14 strain in mouse; type: functional
# [14] = target: GABA-A receptor; anion channel; experiment: Inhibition of [3H]muscimol binding to GABA A receptor 4-biphenylacetic acid at 10 e-4 M; type: protein-complex assay; conditions: read-out: IC50
# [15] = test system: Mus musculus; experiment: Percentage of mice with convulsion (400 mg/kg fenbufen); type: functional
# [16] = target: T1, GABA-A receptor; anion channel (Homo sapiens); experiment: Percentage of GABA-induced chloride currents with 10 e-5 M 4-biphenylacetic acid; type: functional; conditions: Bull Frog
# [17] = test system: Staphylococcus aureus; experiment: Minimum inhibition concentration against Staphylococcus aureus MRSA strain; type: functional
# [18] = The compound was evaluated for the solubility in water at 25 degrees Centigrade; type: ADME
# [19] = target: GABA-A receptor; anion channel; experiment: Inhibition of [3H]muscimol binding to GABA A receptor with 10 e-4 M 4-biphenylacetic acid; type: protein-complex assay
Structure (SMILES),MIC [1],MIC [2],MIC [3],MIC [4],MIC [5],Currents [6],ED50 [7],MIC [8],Convulsion [9],Currents [10],MIC [11],IC50 [12],ED50 [13],IC50 [14],Convulsion [15],Currents [16],MIC [17],solubility [18],IC50 [19]
NCC1CN(c2c(F)cc3c(=O)c(C(=O)O)cn(CCF)c3c2F)CCO1 (stereo not drawn),0.78 µg/mL,6.25 µg/mL,0.78 µg/mL,3.13 µg/mL,25 µg/mL,,,,,,,,,,,,,,
NCC1CN(c2c(F)cc3c(=O)c(C(=O)O)cn(C4CC4)c3c2F)CCCO1 (stereo not drawn),0.78 µg/mL,0.39 µg/mL,1.56 µg/mL,1.56 µg/mL,6.25 µg/mL,,,,,,,,,,,,,,
O=C(O)c1cn(C2CC2)c2c(F)c(N3CCOC(CN4CCCCC4)C3)c(F)cc2c1=O (stereo not drawn),0.78 µg/mL,3.13 µg/mL,25 µg/mL,6.25 µg/mL,50 µg/mL,,,,,,,,,,,,,,
CCNCC1CN(c2c(F)cc3c(=O)c(C(=O)O)cn(C4CC4)c3c2F)CCO1 (stereo not drawn),0.1 µg/mL,0.1 µg/mL,0.2 µg/mL,0.05 µg/mL,3.13 µg/mL,,,,,,,,,,,,,,
NCC1CN(c2c(F)cc3c(=O)c(C(=O)O)cn(-c4cc(F)cc(F)c4)c3c2F)CCO1 (stereo not drawn),0.2 µg/mL,0.39 µg/mL,0.39 µg/mL,0.2 µg/mL,6.25 µg/mL,,,,,,,,,,,,,,
CN(Cc1ccccc1)CC1CN(c2c(F)cc3c(=O)c(C(=O)O)cn(C4CC4)c3c2F)CCO1 (stereo not drawn),0.39 µg/mL,1.56 µg/mL,1.56 µg/mL,0.78 µg/mL,25 µg/mL,,,,,,,,,,,,,,
CC1COc2c(N3CCN(C)CC3)c(F)cc3c(=O)c(C(=O)O)cn1c23 (stereo not drawn) [OFLOXACIN],0.2 µg/mL,0.1 µg/mL,0.78 µg/mL,0.78 µg/mL,0.78 µg/mL,39%,0.27 mg mouse-1,0.2 µg/mL,0%,94%,0.05 µg/mL,> 100 µM,0.009 mg mouse-1,11 µM,0%,87%,,,
NCCC1CN(c2c(F)cc3c(=O)c(C(=O)O)cn(C4CC4)c3c2F)CCO1 (stereo not drawn),0.2 µg/mL,1.56 µg/mL,0.39 µg/mL,0.39 µg/mL,12.5 µg/mL,,,,,,,,,,,,,,
CC1COc2c(N3CCOC(CN)C3)c(F)cc3c(=O)c(C(=O)O)cn1c23 (stereo not drawn),0.78 µg/mL,3.13 µg/mL,3.13 µg/mL,12.5 µg/mL,25 µg/mL,,,,,,,,,,,,,,
CCn1cc(C(=O)O)c(=O)c2cc(F)c(N3CCNCC3)cc21 [NORFLOXACIN],0.39 µg/mL,0.1 µg/mL,0.78 µg/mL,3.13 µg/mL,0.39 µg/mL,,1 mg mouse-1,0.2 µg/mL,0%,38%,0.05 µg/mL,13 µM,0.054 mg mouse-1,0.02 µM,100%,0%,12.5 µg/mL,290 µg/mL,
O=C(O)c1cn(C2CC2)c2cc(N3CCOCC3)c(F)cc2c1=O,0.05 µg/mL,0.2 µg/mL,0.78 µg/mL,3.13 µg/mL,1.56 µg/mL,91%,,,0%,100%,,> 100 µM,,,0%,99%,0.1 µg/mL,,> 100 µM
CCn1cc(C(=O)O)c(=O)c2cc(F)c(N3CCOC(CN)C3)c(F)c21 (stereo not drawn),0.2 µg/mL,1.56 µg/mL,0.39 µg/mL,0.39 µg/mL,3.13 µg/mL,79%,0.521 mg mouse-1,0.1 µg/mL,0%,94%,0.39 µg/mL,> 100 µM,0.232 mg mouse-1,> 100 µM,0%,89%,,2900 µg/mL,
